Results taken from patent US4094979A, “Orally active cephalosporins” (American Home Products Corporation, priority 1976, dated 1978).
Values after ≈ are worked out from the molar mass of the structure shown. Where a name gives a salt, the structure may show the parent alone.

Legend:
[1] = test system: E. Coli (920); assay: oral antibacterial activity in intraperitoneally infected CD-1 mice; type: in vivo
Experimental: (§1) The oral antibacterial activity of the compounds of this invention was establihsed by intraperitoneally infecting four groups of 10 male mice CD-1 strain weighing 17-19 grams with 0.5 milliliter of a standardized suspension of bacterium in 5 percent gastric mucin. The animals were then randomized and at 6 hours post infection a single dose of the antibacterial compound being tested was given orally at 7.2, 3.6, 1.8 and 0.9 mg/mouse to each group of 10 mice.
(§2) Testing against E. Coli (920-LD95), as a general representative of gram-negative bacteria, was followed by testing against Proteus vulgaris (347) as an example of a special application against a gram negative bacterium. In the oral anti-bacterial activity test, an arbitrary maximum dose is set at 7.2 milligrams per mouse below which activity must be found before a compound is considered orally active. The arbitrary maximum dose of 7.2 milligrams per mouse represents a practical dose limit in terms of the potency of known orally active antibacterial agents.

[2] = test system: Proteus vulgaris (347); assay: as above; type: in vivo
Experimental: as §1, §2

[3] = test system: E. Coli (E-2); assay: as above; type: in vivo
Experimental: as §1, §2

[4] = test system: E. Coli W-102; assay: as above; type: in vivo; conditions: E. Coli W-102, at 7.2 mg/mouse
Experimental: as §1, §2

[5] = test system: E. Coli (E-3); assay: as above; type: in vivo
Experimental: as §1, §2

[6] = test system: Kl Pn; assay: as above; type: in vivo; conditions: P.O., single dose 6 hours post infection, 14 days
Experimental: as §1, §2

[7] = test system: Pr Mi; assay: as above; type: in vivo; conditions: P.O., single dose 6 hours post infection, 14 days
Experimental: as §1, §2

[8] = test system: St Au (Smith); assay: as above; type: in vivo
Experimental: as §1, §2

[9] = test system: St Py; assay: as above; type: in vivo; conditions: P.O., single dose 6 hours post infection, 14 days
Experimental: as §1, §2

[10] = test system: En Ae 13048; assay: in vitro agar serial dilution, MIC; type: cell-based; conditions: strain 13048
[11] = test system: Kl Pn 10031; assay: in vitro agar serial dilution, MIC; type: cell-based; conditions: strain 10031
[12] = test system: Pr Mi 9921; assay: in vitro agar serial dilution, MIC; type: cell-based; conditions: strain 9921
[13] = test system: Ne Ca 819; assay: in vitro agar serial dilution, MIC; type: cell-based; conditions: strain 819
[14] = test system: St Au CHP; assay: in vitro agar serial dilution, MIC; type: cell-based; conditions: strain CHP
[15] = test system: St Au 6538P; assay: in vitro agar serial dilution, MIC; type: cell-based; conditions: strain 6538P
[16] = test system: St Au 53-180; assay: in vitro agar serial dilution, MIC; type: cell-based; conditions: strain 53-180
[17] = test system: Sa Pa 11737; assay: in vitro agar serial dilution, MIC; type: cell-based; conditions: strain 11737
[18] = test system: Es In 65-1; assay: in vitro agar serial dilution, MIC; type: cell-based; conditions: strain 65-1
[19] = test system: My Sm 10143; assay: in vitro agar serial dilution, MIC; type: cell-based; conditions: strain 10143
[20] = test system: Ps Ae 10145; assay: in vitro agar serial dilution, MIC; type: cell-based; conditions: strain 10145
[21] = test system: St Au Smith; assay: in vitro agar serial dilution, MIC; type: cell-based; conditions: strain Smith
[22] = test system: Es Co 9637; assay: in vitro agar serial dilution, MIC; type: cell-based; conditions: strain 9637
[23] = P.O., single dose 6 hours post infection, 14 days
[24] = E. Coli, P.O., single dose 6 hours post infection, 14 days
[25] = Pr Bu, P.O., single dose 6 hours post infection, 14 days

With `Cn1nnnc1SCC1=C(C(=O)O)N2C(=O)C(NC(=O)CCN3C(=O)CSC3=S)C2SC1` (stereo not drawn) as the compound, how does the CD50 ([1]; E. Coli (920), oral) read?
Its CD50 is 3.05 mg/mouse.

What about the CD50 ([2]; Pr vulgaris (347), oral) of the same compound?
Its CD50 is 5.90 mg/mouse.

What about the CD50 [3] of the same compound?
The CD50 was 3.30 mg/mouse.

And the oral antibacterial activity [4]?
Its oral antibacterial activity is “inactive”.

What about the CD50 [5] of the same compound?
Its CD50 is 2.12 mg/mouse.

With `Cn1nnnc1SCC1=C(C(=O)O)N2C(=O)C(NC(=O)CCN3C(=O)CSC3=S)C2SC1` (stereo not drawn) [Ex. 1-Na salt] as the compound, how does the CD50 [6] read?
Its CD50 is 1.36 mg/mouse.

What about the CD50 [7] of the same compound?
The CD50 was 4.49 mg/mouse.

What about the CD50 [8, 23] of the same compound?
The CD50 was 2.73 mg/mouse.

What about the CD50 [1, 24] of the same compound?
The CD50 was 2.35 mg/mouse.

What about the CD50 [9] of the same compound?
Its CD50 is > 3.6 mg/mouse.

What about the CD50 [2, 25] of the same compound?
Its CD50 is 5.97 mg/mouse.

What does the source list for `CC1=C(C(=O)O)N2C(=O)[C@@H](NC(=O)[C@H](N)C3=CCC=CC3)[C@H]2SC1` [Cephradine, reference compound]?
CD50 [6]: 2.42 mg/mouse; CD50 [7]: 2.25 mg/mouse; CD50 [8, 23]: 0.140 mg/mouse; CD50 [1, 24]: 2.27 mg/mouse; CD50 [9]: < 0.45 mg/mouse; CD50 [2, 25]: 6.52 mg/mouse

What does the source list for `Cn1nnnc1SCC1=C(C(=O)O)N2C(=O)C(NC(=O)CCN3C(=O)CSC3=S)C2SC1` (stereo not drawn) [Example 1 acid]?
MIC [10]: 250 µg/mL (≈ 485 µM); MIC [11]: 3.9 µg/mL (≈ 7.56 µM); MIC [12]: 0.97 µg/mL (≈ 1.88 µM); MIC [13]: 31.3 µg/mL (≈ 60.7 µM); MIC [14]: 7.81 µg/mL (≈ 15.1 µM); MIC [15]: 1.95 µg/mL (≈ 3.78 µM); MIC [16]: 3.9 µg/mL (≈ 7.56 µM); MIC [17]: 0.97 µg/mL (≈ 1.88 µM); MIC [18]: 62.5 µg/mL (≈ 121 µM); MIC [19]: 250 µg/mL (≈ 485 µM); CD50 ([8]; buffered to pH 4.9 in aqueous solution): 2.73 mg/mouse; CD50 ([1]; E. Coli (920), buffered to pH 4.9 in aqueous solution): 2.97 mg/mouse; CD50 ([2]; Pr vulgaris (Pr-347), buffered to pH 4.9 in aqueous solution): 5.97 mg/mouse; MIC [20]: 250 µg/mL (≈ 485 µM); MIC [21]: 1.95 µg/mL (≈ 3.78 µM); MIC [22]: 3.9 µg/mL (≈ 7.56 µM)
